According to PubChem BioAssay AID2060602 (Molecular Pharmacology Branch, DTP, NCI, 2025):

System: 648629-189-R-J1-PDC complex spheroids viability
Assay: Anticancer human tumor 648629-189-R-J1-PDC patient-derived bladder carcinoma cell line growth inhibition [CLK]
Settings: for IC50: curve of first compound; for viability, T/C: stronger effect = lower value
In short: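 Multi-cell-type spheroids combined patient-derived tumor cells with HUVEC endothelial cells and human mesenchymal stem cells. Paired agents were dosed in half-log steps down from about clinical Cmax, or from 10 microM where Cmax was unknown.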

[1] = second compound 0.0316 µM, first compound 0.0316 µM
[2] = second compound 0.0316 µM, first compound 0.1 µM
[3] = second compound 0.0316 µM, first compound 0.316 µM
[4] = second compound 0.0316 µM, first compound 1 µM
[5] = second compound 0.0316 µM, first compound 3.16 µM
[6] = second compound 0.0316 µM, first compound 10 µM
[7] = second compound 0.1 µM, first compound 0.0316 µM
[8] = second compound 0.1 µM, first compound 0.1 µM
[9] = second compound 0.1 µM, first compound 0.316 µM
[10] = second compound 0.1 µM, first compound 1 µM
[11] = second compound 0.1 µM, first compound 3.16 µM
[12] = second compound 0.1 µM, first compound 10 µM
[13] = second compound 0.316 µM, first compound 0.0316 µM
[14] = second compound 0.316 µM, first compound 0.1 µM
[15] = second compound 0.316 µM, first compound 0.316 µM
[16] = second compound 0.316 µM, first compound 1 µM
[17] = second compound 0.316 µM, first compound 3.16 µM
[18] = second compound 0.316 µM, first compound 10 µM
[19] = second compound 1 µM, first compound 0.0316 µM
[20] = second compound 1 µM, first compound 0.1 µM
[21] = second compound 1 µM, first compound 0.316 µM
[22] = second compound 1 µM, first compound 1 µM
[23] = second compound 1 µM, first compound 3.16 µM
[24] = second compound 1 µM, first compound 10 µM
[25] = second compound 3.16 µM, first compound 0.0316 µM
[26] = second compound 3.16 µM, first compound 0.1 µM
[27] = second compound 3.16 µM, first compound 0.316 µM
[28] = second compound 3.16 µM, first compound 1 µM
[29] = second compound 3.16 µM, first compound 3.16 µM
[30] = second compound 3.16 µM, first compound 10 µM
[31] = second compound 10 µM, first compound 0.0316 µM
[32] = second compound 10 µM, first compound 0.1 µM
[33] = second compound 10 µM, first compound 0.316 µM
[34] = second compound 10 µM, first compound 1 µM
[35] = second compound 10 µM, first compound 3.16 µM
[36] = second compound 10 µM, first compound 10 µM
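For viability, T/C in this document: drug exposure lasted seven days before viability readout; 100% = DMSO vehicle control wells.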

CC(Nc1ccc2c(c1)OCCn1cc(N3C(=O)OCC3C(F)F)nc1-2)C(N)=O (stereo not drawn) + CNC(=O)c1ccc(Nc2nc(OC3CCCC3)c3c(-c4ccc5nc(C)oc5c4)c[nH]c3n2)c(OC)c1
IC50 (second compound 0.0316 µM): 5870 nM | IC50 (second compound 0.1 µM): 9490 nM | IC50 (second compound 0.316 µM): < 31.6 nM | IC50 (second compound 1 µM): < 31.6 nM | IC50 (second compound 3.16 µM): < 31.6 nM | IC50 (second compound 10 µM): < 31.6 nM | viability, T/C [1]: 114% | viability, T/C [2]: 106% | viability, T/C [3]: 89.4% | viability, T/C [4]: 67.8% | viability, T/C [5]: 64.9% | viability, T/C [6]: 40.6% | viability, T/C [7]: 95.7% | viability, T/C [8]: 89.9% | viability, T/C [9]: 84.1% | viability, T/C [10]: 77.3% | viability, T/C [11]: 62.2% | viability, T/C [12]: 49.6% | viability, T/C [13]: 27.7% | viability, T/C [14]: 37.6% | viability, T/C [15]: 33.7% | viability, T/C [16]: 34% | viability, T/C [17]: 31.2% | viability, T/C [18]: 27.1% | viability, T/C [19]: 17% | viability, T/C [20]: 22.3% | viability, T/C [21]: 18.5% | viability, T/C [22]: 17.5% | viability, T/C [23]: 16.6% | viability, T/C [24]: 14.8% | viability, T/C [25]: 16.7% | viability, T/C [26]: 20.3% | viability, T/C [27]: 16.1% | viability, T/C [28]: 17.8% | viability, T/C [29]: 12.9% | viability, T/C [30]: 15.9% | viability, T/C [31]: 21.5% | viability, T/C [32]: 19.8% | viability, T/C [33]: 17.2% | viability, T/C [34]: 15% | viability, T/C [35]: 21.8% | viability, T/C [36]: 11.5%

CCCS(=O)(=O)Nc1ccc(F)c(C(=O)c2c[nH]c3ncc(-c4ccc(Cl)cc4)cc23)c1F + CN1CCN(c2cc(C(=O)Nc3cc4cc(-c5cnn(C)c5)ccc4cn3)ccn2)CC1
IC50 (second compound 0.0316 µM): 7050 nM | IC50 (second compound 0.1 µM): 7250 nM | IC50 (second compound 0.316 µM): < 31.6 nM | IC50 (second compound 1 µM): < 31.6 nM | IC50 (second compound 3.16 µM): < 31.6 nM | IC50 (second compound 10 µM): < 31.6 nM | viability, T/C [1]: 115% | viability, T/C [2]: 104% | viability, T/C [3]: 116% | viability, T/C [4]: 110% | viability, T/C [5]: 126% | viability, T/C [6]: 21.8% | viability, T/C [7]: 110% | viability, T/C [8]: 118% | viability, T/C [9]: 105% | viability, T/C [10]: 98.7% | viability, T/C [11]: 104% | viability, T/C [12]: 28.9% | viability, T/C [13]: 37.6% | viability, T/C [14]: 57.9% | viability, T/C [15]: 55.4% | viability, T/C [16]: 46.8% | viability, T/C [17]: 44.1% | viability, T/C [18]: 7.7% | viability, T/C [19]: 0.47% | viability, T/C [20]: 0.46% | viability, T/C [21]: 0.3% | viability, T/C [22]: 0.39% | viability, T/C [23]: 0.22% | viability, T/C [24]: 0.86% | viability, T/C [25]: 0.11% | viability, T/C [26]: 0.67% | viability, T/C [27]: 0.13% | viability, T/C [28]: 0.13% | viability, T/C [29]: 0.14% | viability, T/C [30]: 0.52% | viability, T/C [31]: 0.11% | viability, T/C [32]: 0.13% | viability, T/C [33]: 0.14% | viability, T/C [34]: 0.16% | viability, T/C [35]: 0.15% | viability, T/C [36]: 0.25%

COc1c(OCCCN2CCOCC2)ccc2c3n(c(=NC(=O)c4cnc(N)nc4)nc12)CCN3 + CNC(=O)c1ccc(Nc2nc(OC3CCCC3)c3c(-c4ccc5nc(C)oc5c4)c[nH]c3n2)c(OC)c1
IC50 (second compound 0.0316 µM): 92.8 nM | IC50 (second compound 0.1 µM): 93 nM | IC50 (second compound 0.316 µM): < 3.16 nM | IC50 (second compound 1 µM): < 3.16 nM | IC50 (second compound 3.16 µM): < 3.16 nM | IC50 (second compound 10 µM): < 3.16 nM | viability, T/C (second compound 0.0316 µM, first compound 0.00316 µM): 94.5% | viability, T/C (second compound 0.0316 µM, first compound 0.01 µM): 92.6% | viability, T/C [1]: 88.2% | viability, T/C [2]: 46.9% | viability, T/C [3]: 15.3% | viability, T/C [4]: 8.61% | viability, T/C (second compound 0.1 µM, first compound 0.00316 µM): 101% | viability, T/C (second compound 0.1 µM, first compound 0.01 µM): 105% | viability, T/C [7]: 80.6% | viability, T/C [8]: 49.1% | viability, T/C [9]: 17.6% | viability, T/C [10]: 8.37% | viability, T/C (second compound 0.316 µM, first compound 0.00316 µM): 30.4% | viability, T/C (second compound 0.316 µM, first compound 0.01 µM): 31.4% | viability, T/C [13]: 34.1% | viability, T/C [14]: 31.3% | viability, T/C [15]: 17.9% | viability, T/C [16]: 8.81% | viability, T/C (second compound 1 µM, first compound 0.00316 µM): 19.9% | viability, T/C (second compound 1 µM, first compound 0.01 µM): 19.9% | viability, T/C [19]: 16.1% | viability, T/C [20]: 14.5% | viability, T/C [21]: 11.1% | viability, T/C [22]: 5.6% | viability, T/C (second compound 3.16 µM, first compound 0.00316 µM): 16.3% | viability, T/C (second compound 3.16 µM, first compound 0.01 µM): 15.8% | viability, T/C [25]: 16.1% | viability, T/C [26]: 11.2% | viability, T/C [27]: 7.88% | viability, T/C [28]: 4.37% | viability, T/C (second compound 10 µM, first compound 0.00316 µM): 19.9% | viability, T/C (second compound 10 µM, first compound 0.01 µM): 18.3% | viability, T/C [31]: 16.9% | viability, T/C [32]: 13.4% | viability, T/C [33]: 9.26% | viability, T/C [34]: 5.85%

Nc1ccn(C2OC(CO)C(O)C2(F)F)c(=O)n1 (stereo not drawn) + CNC(=O)c1ccc(Nc2nc(OC3CCCC3)c3c(-c4ccc5nc(C)oc5c4)c[nH]c3n2)c(OC)c1
IC50 (second compound 0.0316 µM): 38.2 nM | IC50 (second compound 0.1 µM): 42.1 nM | IC50 (second compound 0.316 µM): < 31.6 nM | IC50 (second compound 1 µM): < 31.6 nM | IC50 (second compound 3.16 µM): < 31.6 nM | IC50 (second compound 10 µM): < 31.6 nM | viability, T/C [1]: 56.8% | viability, T/C [2]: 16.1% | viability, T/C [3]: 10.6% | viability, T/C [4]: 8.41% | viability, T/C [5]: 8.43% | viability, T/C [6]: 6.82% | viability, T/C [7]: 58.7% | viability, T/C [8]: 23.9% | viability, T/C [9]: 10.1% | viability, T/C [10]: 8.46% | viability, T/C [11]: 7.09% | viability, T/C [12]: 5.88% | viability, T/C [13]: 18.1% | viability, T/C [14]: 14.3% | viability, T/C [15]: 8.69% | viability, T/C [16]: 7.21% | viability, T/C [17]: 7.97% | viability, T/C [18]: 6.5% | viability, T/C [19]: 18.2% | viability, T/C [20]: 13.3% | viability, T/C [21]: 11.8% | viability, T/C [22]: 8.47% | viability, T/C [23]: 9.1% | viability, T/C [24]: 7.07% | viability, T/C [25]: 16.2% | viability, T/C [26]: 14.8% | viability, T/C [27]: 11.2% | viability, T/C [28]: 11.7% | viability, T/C [29]: 11.2% | viability, T/C [30]: 7.1% | viability, T/C [31]: 18.1% | viability, T/C [32]: 18% | viability, T/C [33]: 14.7% | viability, T/C [34]: 10.1% | viability, T/C [35]: 9.44% | viability, T/C [36]: 7.39%
